Laboratory results: publication PMC4026327 (Nature Communications, 2014)

Experiments:
Details in all cases: read-out: Melibiose displacement of D ^ 2 G (IC 50); 10 μM D2G, 20 mM NaCl, 100 mM KPi pH 7.5
[1] = biological target: MelBSt (WT) (Salmonella enterica, UniProt P30878, L5M/R295C)
[2] = biological target: MelBSt (WT) (Salmonella enterica, UniProt P30878, L5M/R363C)
[3] = biological target: MelBSt (WT) (Salmonella enterica, UniProt P30878, L5M/R141C)
[4] = biological target: MelBSt (WT) (Salmonella enterica, UniProt P30878, L5M)

## OC[C@H]1O[C@H](OC[C@H]2OC(O)[C@H](O)[C@@H](O)[C@@H]2O)[C@H](O)[C@@H](O)[C@H]1O (stereo partly shown) [melibiose]
[1]
  IC50: 4.04 ± 0.42 mM
[2]
  IC50: 2.83 ± 0.57 mM
[3]
  IC50: 5.93 ± 1.61 mM
[4]
  IC50: 2.65 ± 0.8 mM
